Patent US20040126359A1, “Hedgehog” (priority 2001, published 2004)

Key:
CD4+ T-cells = test: Taqman real time PCR of Shh, Ihh, HIP and Ptc expression in CD4+ T-cells (FIGS. 14, 15, 17); assay type: cell-based; settings: for Shh expression / production by activated T-cells: cytokine added; for Hip expression / Shh expression: activated T-cells, IFNγ
Method: Expression in medium, in the presence of 50 ng/ml IL-10 and in the presence of 50 ng/ml IFN-γ was compared to expression in resting CD4+ T-cells;
Similar experiments were used to study the expression of Shh (FIG. 4) and Ptc (FIG. 5) in T-cells and the expression of components of the Hh signalling pathway in lymphoid tissues (FIG. 6). FIG. 14 illustrates the results of an RT-PCR analysis of Shh, Ihh, Hip and Ptc expression. Activation of T-cells induced a sustained and marked (approximately 80-fold) increase in Shh mRNA, peaking at 44 and 72 hours. It lead to a downregulation of Ptc.

[1] = molecular target: endogenous Shh produced by activated mouse CD4+ T-cells (mouse) (UniProt Q62226); test: cell-based or functional assay
Sequence of endogenous Shh produced by activated mouse CD4+ T-cells (mouse) (Q62226 25-198 limits assumed): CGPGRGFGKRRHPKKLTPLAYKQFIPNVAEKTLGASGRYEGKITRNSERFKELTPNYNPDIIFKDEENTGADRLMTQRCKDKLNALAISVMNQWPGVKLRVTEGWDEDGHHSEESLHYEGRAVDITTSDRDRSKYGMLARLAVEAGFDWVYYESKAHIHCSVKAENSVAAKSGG

TGF-β
Shh expression / production by activated T-cells (CD4+ T-cells): down-regulate

IFNγ: cytokine interferon gamma
Hip expression (CD4+ T-cells; 24 and 48 hours): upreguated | Shh expression (CD4+ T-cells; 24 hours): downregulation | Shh expression (CD4+ T-cells; 48 hours): upregulation | Hip expression (CD4+ T-cells; 72 hours): downregulted | Shh expression / production by activated T-cells (CD4+ T-cells): downregulation

neutralising anti-Shh antibody 5E1
% decrease in the proportion of CD4+ T-cells in S/G2 with anti-Shh antibody (50 µg/ml), cell cycle analysis [1]: 66.2 to 81.6% | % decrease in the proportion of CD4+ T-cells in S/G2 with anti-Shh antibody (50 µg/ml), cell cycle analysis, mean [1]: 73.4% | decrease in proliferation of sub-optimally activated CD4+ T-cells with 50 µg/ml anti-Shh antibody (3H-TdR incorporation) [1]: 71.3 to 85.1%

B1: IL-10: immunosuppressive cytokine, interleukin (protein, UniProt P22301 19-178, looked up)
Interleukin-10: SPGQGTQSENSCTHFPGNLPNMLRDLRDAFSRVKTFFQMKDQLDNLLLKESLLEDFKGYLGCQALSEMIQFYLEEVMPQAENQDPDIKAHVNSLGENLKTLRLRLRRCHRFLPCENKSKAVEQVKNAFNKLQEKGIYKAMSEFDIFINYIEAYMTMKIRN
Shh expression / production by activated T-cells (CD4+ T-cells): down-regulate
